Assay [1] deals with diabetic neuropathy model rats. Kind of assay: Mechanical pain threshold (von Frey) in diabetic neuropathy model rats. It counts as in vivo, rat. The note with it: TBN 30 mg/kg twice a day. How it is done: Modeling method: STZ was weighed and transferred to a centrifuge tube, wrapped with aluminum foil, kept away from light, and stored at −20° C. STZ sodium citrate solution is prepared when it is in need to use. The rats were fasted without water for 12 hours before injection. After weighing, the rats were injected with 55 mg/kg STZ intraperitoneally (STZ needs to be injected quickly, and the injection was completed within 10 minutes), and then returned to the cage to ensure that the rats had sufficient drinking water for 24 hours. Rats were injected with an equal volume of citrate buffer (pH 4.5). Four weeks after STZ injection, blood was collected from the tail vein, and the rats with blood glucose less than 16.7 mmol/L were eliminated; the taillick threshold temperature was increased, and the mechanical withdrawal threshold (MWT) was decreased, as the standard of a successful DPN model.
The animals were randomly divided into 3 groups (n=7), namely the normal control group, the model group, and the TBN (30 mg/kg) group. The normal group and the model group were injected with an equal volume of normal saline, and TBN was administered twice a day (fixed at 9:00-10:00 am and 3:00-4:00 pm), continuously for 4 weeks.
Experiment for detecting mechanical pain threshold: In a quiet environment, the rats were individually placed in a porous steel wire cage. […]

Assay [2] concerns db/db mice. Kind of assay: 24 h urine microalbumin in db/db mice. In kind it is in vivo, mouse. The note with it: TBN 10, 30, 60 mg/kg, end of 6 weeks; especially 30 and 60 mg/kg (P<0.001). From the text:
db/db mice are congenital obese type 2 DKD mice with spontaneous mutations in the leptin receptor (Leptin receptor, Lepr) due to a point mutation in the leptin receptor gene GT located on chromosome 4. The course of polyphagia, polyuria, diabetes and hyperglycemia is similar to that of humans, and it is currently the most widely used type 2 spontaneous animal model of DKD. The db/db mice have a series of complications with the aggravation of diabetes. The main pathological changes of renal tissue are the expansion of the glomerular mesangial interstitium, the thickening of the glomerular basement membrane, and the excessive accumulation of extracellular matrix. However, the glomerular mesangium of db/db mice changes relatively slowly, and the glomerular mesangium will not be dissolved or nodular glomerulosclerosis, and there is no progressive renal insufficiency. […]
db/db mice were tested for 24 h urine microalbumin in the 4th and 6th week after drug treatment. […] The absorbance value (OD value) was measured at 450 nm wavelength; the blank control hole was used for adjusting zero, the microalbuminuria standard concentration was used as the abscissa, the OD value as the ordinate, the standard curve regression equation was calculated, and on the basis of the regression equation and the sample's OD value, the concentration of the sample was determined.

In assay [3] the test system is db/db mice. In words: Urinary albumin/creatinine ratio in db/db mice, TBN alone and in combination. It counts as in vivo, mouse. The conditions noted are these: TBN 30 mg/kg, Losartan 10 mg/kg, TBN+Losartan (FIG. 17). How it is done:
Grouping and dosing are the same as in Example 9. At the end of the experiment, 24 h urine samples were collected, antiseptic treatment was performed to all urine specimens with toluene, 24 h urine was centrifuged to remove precipitation and placed in a 1.5 mLEP tube and then placed in a refrigerator at −20° C. for later use, urinary albumin content was measured with ELISA kits, urine creatinine levels were detected by use of an automatic biochemical analyzer, and the ratio of both was calculated. The results as shown in FIG. 19 indicate that the ratio of urinary microalbumin to creatinine in DB/DB group was higher than that in wt/wt group, and the db/db mice 24 h urinary albumin creatinine ratio decreased in TBN group, losartan group and TBN-losartan combination group. Referring to this method, metformin (150 mg/kg, qd), and HIF-PH inhibitor roxadustat (10 mg/kg, once 2 every days) were given via oral administration, the combination groups of TBN with respectively metformin and roxadustat also reduce 24 h urinary albumin creatinine ratio.

In the next assay the test system is STZ-induced SHR rats. In words: Body weight of STZ-induced SHR rats. It counts as in vivo, rat. The conditions noted are these: 60 mg/kg twice/day, 6 weeks. Here is the method: 6 W-age SHR rats were abstained from food but not water for 12 h before injection, and then intraperitoneally injected with 55 mg/kg STZ after weighing (STZ required for fast injection, to be completed within 10 min), then put back to the cage to ensure that rat has sufficient drinking water in the period of 24 h, and the rats of normal control group were injected with citric acid buffer (pH 4.5) in the same volume. After 3 weeks of STZ injection, retinal venous blood was collected, and blood glucose ≥16.7 mmol/L was used as a molding standard, where the model of SHR rats that meet the above criteria is considered successful.
The route of administration is intragastrical, TBN is administered twice a day (fixed at 9:00-10:00 am and 3:00-4:00 pm), and Losartan is administered once a day (fixed at 9:00-10:00 am), continuously for 6 weeks.
The general situation and weight changes are observed after the establishment of the rat model, and the general situation includes the activity of rats, mental state, hair color, diet, drinking water and urine volume, etc., and water consumption and feed weights were recorded each week.

In assay [4] the test system is spontaneous diabetic model in rhesus monkeys. Kind of assay: Spontaneous diabetic model in rhesus monkeys, serum EPO and iron. It counts as in vivo.

Here are results for 1 compound from patent US12377095B2, “Use of ligustrazine nitrone derivatives in treatment and prevention of diabetic complication diseases” (QINGDAO HAILAN PHARMACEUTICALS CO., LTD., priority 2019, dated 2025).

SMILES strings stand for the structures.

`Cc1nc(C)c(/C=[N+](\[O-])C(C)(C)C)nc1C` [TBN]: the “mechanical pain threshold vs model group” value in assay [1] (2 weeks after administration (6 weeks after STZ)) is listed as “no statistically significant difference”. Moreover, the “mechanical pain threshold vs model group” value in assay [1] (4 weeks after administration (8 weeks after STZ), P<0.05) was “increased”. In addition, the “24 h urine microalbumin production” value in the assay on db/db mice [2] was “dose-dependently reduced”. The “24 h urinary albumin creatinine ratio” value in the assay on db/db mice [3] is listed as “decreased”. Further, the “body weight vs SHR-STZ group” value in the assay on STZ-induced SHR rats is recorded as “increased significantly”. For the same compound, in assay [4], the “serum EPO content” value was “increase” and the serum iron content entry is listed as “increase”.
